Assay results from ChEMBL document CHEMBL1201862, “PubChem BioAssay data set” (2004).
Calls of active or inactive are those of the source.

Experiments:
[1] = target: Diphosphomevalonate decarboxylase (Streptococcus pneumoniae serotype 2 (strain D39 / NCTC 7466), UniProt Q9FD53); assay: S. pneumoniae DPM-DC inhibition retest, confirmation, biochemical, cuvette format, coupled NADH fluorescence (AID 1028); format: functional
[2] = target: Voltage-gated inwardly rectifying potassium channel KCNH2 (Homo sapiens, UniProt Q12809); assay: hERG protection from proarrhythmic block, potency, dose response, cell-based, thallium flux (AID 2121); format: ADME
Sequence of Voltage-gated inwardly rectifying potassium channel KCNH2 (Q12809 whole entry): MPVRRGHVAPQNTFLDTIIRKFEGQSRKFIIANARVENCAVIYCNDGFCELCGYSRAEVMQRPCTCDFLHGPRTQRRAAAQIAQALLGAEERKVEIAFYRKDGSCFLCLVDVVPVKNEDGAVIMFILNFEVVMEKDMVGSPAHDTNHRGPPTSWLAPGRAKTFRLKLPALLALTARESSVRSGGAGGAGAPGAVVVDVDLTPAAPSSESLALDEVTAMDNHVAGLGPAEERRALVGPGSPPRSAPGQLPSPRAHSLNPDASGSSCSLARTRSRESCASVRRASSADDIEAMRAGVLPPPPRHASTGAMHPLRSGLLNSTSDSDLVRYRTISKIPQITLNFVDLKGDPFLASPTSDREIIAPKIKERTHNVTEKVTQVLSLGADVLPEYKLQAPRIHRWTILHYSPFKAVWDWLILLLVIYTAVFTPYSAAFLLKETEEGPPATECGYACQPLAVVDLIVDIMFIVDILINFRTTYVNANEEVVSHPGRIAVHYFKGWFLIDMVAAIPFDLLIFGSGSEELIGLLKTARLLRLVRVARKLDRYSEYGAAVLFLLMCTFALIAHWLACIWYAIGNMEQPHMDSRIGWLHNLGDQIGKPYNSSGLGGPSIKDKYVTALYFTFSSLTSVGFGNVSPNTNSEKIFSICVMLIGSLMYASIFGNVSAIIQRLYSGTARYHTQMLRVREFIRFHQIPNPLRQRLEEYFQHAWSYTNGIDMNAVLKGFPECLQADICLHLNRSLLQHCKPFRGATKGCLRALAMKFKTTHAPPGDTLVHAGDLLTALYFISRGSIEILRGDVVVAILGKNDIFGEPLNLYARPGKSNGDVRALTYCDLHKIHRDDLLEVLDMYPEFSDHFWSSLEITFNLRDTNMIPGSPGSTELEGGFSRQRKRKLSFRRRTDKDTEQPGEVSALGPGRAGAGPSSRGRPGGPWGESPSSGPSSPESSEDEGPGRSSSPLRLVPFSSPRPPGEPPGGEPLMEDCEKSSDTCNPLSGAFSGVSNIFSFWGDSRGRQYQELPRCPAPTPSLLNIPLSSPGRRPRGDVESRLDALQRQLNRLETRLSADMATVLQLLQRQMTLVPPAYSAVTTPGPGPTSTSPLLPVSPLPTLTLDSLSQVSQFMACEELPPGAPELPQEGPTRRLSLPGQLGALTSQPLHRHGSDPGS

Streptococcus = assay: Group A Streptococcus viability loss, dose response, counter-screen for streptokinase expression inhibitor project, luminescence, BacTiterGlo (AID 1915); format: functional, organism-based;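 further: potency for reduction of bacterial viability or growth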
[3] = test system: Streptococcus sp. 'group A'; assay: growth inhibition of control SK(-) GAS strain, dose response, counter-screen for streptokinase expression inhibitor project, luminescence, kanamycin, BacTiterGlo, confirmation (AID 1900); format: functional, organism-based
Bcl-2-related protein A1 [4] = target: T1, Bcl-2-related protein A1 (Mus musculus, UniProt Q07440); assay: Bfl-1 binding inhibitors, SAR follow-up, biochemical, fluorescence polarization (AID 1070)
T1 sequence (Q07440 whole entry): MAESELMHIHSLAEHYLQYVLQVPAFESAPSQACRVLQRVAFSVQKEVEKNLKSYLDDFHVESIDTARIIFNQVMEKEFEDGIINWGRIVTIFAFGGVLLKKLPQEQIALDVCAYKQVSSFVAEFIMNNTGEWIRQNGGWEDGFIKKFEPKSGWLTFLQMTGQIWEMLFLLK

Bcl-2-related protein A1 [5] = target: T1, Bcl-2-related protein A1; assay: Bfl-1 inhibitors blocking BH3 peptide binding, confirmation, biochemical, TR-FRET, mouse Bfl-1 (AID 621);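 further: TR-FRET binding of GST-Bfl-1 to FITC-labelled Bid peptide via terbium antibody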
Protein skinhead-1 = target: T2, Protein skinhead-1 (Caenorhabditis elegans, UniProt P34707); format: functional
T2 sequence (P34707 whole entry): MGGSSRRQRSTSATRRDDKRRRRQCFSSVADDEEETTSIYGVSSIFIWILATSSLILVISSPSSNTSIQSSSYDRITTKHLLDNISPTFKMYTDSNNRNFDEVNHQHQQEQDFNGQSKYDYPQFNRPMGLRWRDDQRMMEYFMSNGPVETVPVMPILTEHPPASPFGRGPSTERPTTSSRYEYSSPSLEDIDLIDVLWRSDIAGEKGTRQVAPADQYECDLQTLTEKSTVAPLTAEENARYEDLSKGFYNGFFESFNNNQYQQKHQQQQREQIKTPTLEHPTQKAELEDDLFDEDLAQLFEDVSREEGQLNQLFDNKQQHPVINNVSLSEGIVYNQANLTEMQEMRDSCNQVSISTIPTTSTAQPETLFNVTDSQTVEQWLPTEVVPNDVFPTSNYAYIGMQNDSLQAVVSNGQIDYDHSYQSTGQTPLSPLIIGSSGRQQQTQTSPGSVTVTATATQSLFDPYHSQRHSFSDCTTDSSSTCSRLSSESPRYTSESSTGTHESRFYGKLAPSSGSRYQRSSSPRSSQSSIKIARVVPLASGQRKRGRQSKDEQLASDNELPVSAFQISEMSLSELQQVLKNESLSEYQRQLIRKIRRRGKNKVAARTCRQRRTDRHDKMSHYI

[6] = Vero E6 cell cytotoxicity, dose response, cytotoxicity control for non-replicating M. tuberculosis project, secondary assay (AID 492998); format: functional, VeroE6; conditions: Vero C1008
Paired box protein Pax-8 = Paired box protein Pax-8 (Homo sapiens, UniProt Q06710); assay: inhibitors of PAX8-driven TPO luciferase reporter, dose response, RMG-I cells, cherry-pick (AID 687027); format: functional, cell-based;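 further: luciferase reporter driven by Pax8 target thyroperoxidase promoter measured by SteadyGlo luminescence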
Sequence of Paired box protein Pax-8 (Q06710 whole entry): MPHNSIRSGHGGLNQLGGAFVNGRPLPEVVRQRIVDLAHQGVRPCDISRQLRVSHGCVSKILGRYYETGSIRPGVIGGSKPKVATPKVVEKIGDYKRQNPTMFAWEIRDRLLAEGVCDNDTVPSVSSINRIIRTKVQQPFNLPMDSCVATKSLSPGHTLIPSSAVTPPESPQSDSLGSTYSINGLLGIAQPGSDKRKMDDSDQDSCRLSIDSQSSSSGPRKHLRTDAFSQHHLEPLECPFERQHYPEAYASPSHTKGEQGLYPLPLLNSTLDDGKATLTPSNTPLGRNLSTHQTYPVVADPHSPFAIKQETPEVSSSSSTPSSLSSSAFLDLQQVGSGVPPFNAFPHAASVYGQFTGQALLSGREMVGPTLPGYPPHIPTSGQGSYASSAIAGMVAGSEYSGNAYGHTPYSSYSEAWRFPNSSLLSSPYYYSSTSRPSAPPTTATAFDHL

[7] = THP-1 cell cytotoxicity, dose response, cytotoxicity control for non-replicating M. tuberculosis project (AID 489025); format: functional
[8] = HepG2 cell cytotoxicity, dose response, cytotoxicity control for non-replicating M. tuberculosis project (AID 489018); format: functional; conditions: Mycobacterium tuberculosis
[9] = Luminescent dose response cell-based high throughput screening assay for inhibitors of the Janus kinase 2 mutant JAK2V617F. [Related pubchem assays: 1446 (Primary screen.), 1521 (Confirmation assay.), 1486 (Counter screen.)]; format: functional
cells = format: functional
Ion channel NompC [10] = target: T3, Ion channel NompC (Danio rerio, UniProt Q7T1G6); assay: Late stage counterscreen for the probe development effort to identify selective agonists of the Transient Receptor Potential Channels 3 (TRPML3): fluorescence-based cell-based dose response assay for TRPN1 agonists.; format: functional
T3 sequence (Q7T1G6 whole entry): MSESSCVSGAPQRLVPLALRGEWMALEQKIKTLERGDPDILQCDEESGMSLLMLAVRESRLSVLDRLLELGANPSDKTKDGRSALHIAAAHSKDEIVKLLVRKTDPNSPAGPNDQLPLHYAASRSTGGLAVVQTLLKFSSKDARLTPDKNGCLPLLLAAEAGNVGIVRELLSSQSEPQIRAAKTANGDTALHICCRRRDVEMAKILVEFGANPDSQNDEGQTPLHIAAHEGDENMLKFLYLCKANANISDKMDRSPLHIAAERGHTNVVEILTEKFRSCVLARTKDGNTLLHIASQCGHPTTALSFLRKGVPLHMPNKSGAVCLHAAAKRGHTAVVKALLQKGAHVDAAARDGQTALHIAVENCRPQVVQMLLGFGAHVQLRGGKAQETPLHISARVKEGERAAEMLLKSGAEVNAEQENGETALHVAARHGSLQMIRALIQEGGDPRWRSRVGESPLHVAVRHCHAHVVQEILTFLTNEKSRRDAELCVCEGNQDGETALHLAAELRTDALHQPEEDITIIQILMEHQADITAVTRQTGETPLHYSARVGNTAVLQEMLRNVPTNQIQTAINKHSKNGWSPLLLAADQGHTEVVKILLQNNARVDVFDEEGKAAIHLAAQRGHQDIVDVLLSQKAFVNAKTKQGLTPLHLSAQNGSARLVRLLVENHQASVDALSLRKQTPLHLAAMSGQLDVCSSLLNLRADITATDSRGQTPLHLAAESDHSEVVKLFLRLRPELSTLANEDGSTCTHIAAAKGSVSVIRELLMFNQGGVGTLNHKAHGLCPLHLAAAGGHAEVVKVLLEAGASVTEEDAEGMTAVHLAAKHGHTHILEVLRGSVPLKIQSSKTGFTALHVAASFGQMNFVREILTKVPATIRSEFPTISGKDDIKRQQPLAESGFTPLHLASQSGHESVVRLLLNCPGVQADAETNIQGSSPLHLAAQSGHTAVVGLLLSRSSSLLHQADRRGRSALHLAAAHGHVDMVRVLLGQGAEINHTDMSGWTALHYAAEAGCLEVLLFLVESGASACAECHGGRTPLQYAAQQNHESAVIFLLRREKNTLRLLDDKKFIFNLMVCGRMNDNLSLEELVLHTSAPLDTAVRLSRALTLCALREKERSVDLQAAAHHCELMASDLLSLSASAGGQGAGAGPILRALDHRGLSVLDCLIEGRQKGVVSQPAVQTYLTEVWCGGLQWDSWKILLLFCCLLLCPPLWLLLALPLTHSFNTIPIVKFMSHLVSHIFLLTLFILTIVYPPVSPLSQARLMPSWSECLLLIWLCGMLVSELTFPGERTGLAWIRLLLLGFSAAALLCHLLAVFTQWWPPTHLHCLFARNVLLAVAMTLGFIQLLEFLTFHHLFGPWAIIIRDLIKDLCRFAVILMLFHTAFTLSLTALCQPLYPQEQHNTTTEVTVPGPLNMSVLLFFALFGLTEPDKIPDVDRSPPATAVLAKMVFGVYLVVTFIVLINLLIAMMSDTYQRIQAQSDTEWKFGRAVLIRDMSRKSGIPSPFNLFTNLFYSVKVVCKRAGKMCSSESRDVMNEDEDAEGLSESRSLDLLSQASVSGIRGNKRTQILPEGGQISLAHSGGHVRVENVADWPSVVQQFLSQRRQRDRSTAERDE

Mucolipin-3 [11] = target: T4, Mucolipin-3 (Homo sapiens, UniProt Q8TDD5); assay: Dose response cell-based high-throughput screening assay for agonists of the transient receptor potential channel ML3 (TRPML3). [Related pubchem assays: 1526, 1424, 1448 ]; format: functional
T4 sequence (Q8TDD5 whole entry): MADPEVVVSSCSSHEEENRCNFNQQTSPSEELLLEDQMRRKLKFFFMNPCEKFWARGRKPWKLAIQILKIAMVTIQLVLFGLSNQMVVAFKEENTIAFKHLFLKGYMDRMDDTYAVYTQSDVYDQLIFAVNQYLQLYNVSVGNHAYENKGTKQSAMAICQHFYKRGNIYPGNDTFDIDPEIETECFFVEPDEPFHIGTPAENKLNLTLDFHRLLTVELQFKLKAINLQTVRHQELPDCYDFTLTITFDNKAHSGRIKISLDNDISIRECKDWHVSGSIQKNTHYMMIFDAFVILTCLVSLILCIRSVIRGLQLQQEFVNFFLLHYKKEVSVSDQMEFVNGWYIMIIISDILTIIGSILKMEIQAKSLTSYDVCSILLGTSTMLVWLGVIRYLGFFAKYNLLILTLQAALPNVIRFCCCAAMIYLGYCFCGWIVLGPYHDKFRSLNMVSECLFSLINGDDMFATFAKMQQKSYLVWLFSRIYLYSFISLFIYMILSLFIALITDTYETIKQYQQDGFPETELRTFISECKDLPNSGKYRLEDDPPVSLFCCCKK

Mucolipin-3 [12] = target: T4, Mucolipin-3; assay: TRPML3 agonist potency, dose response, cell-based, calcium fluorescence (AID 2510); format: functional
Ion channel NompC [13] = target: T3, Ion channel NompC; assay: Fluorescence counterscreen assay for TRPML3 agonists: dose response cell-based high-throughput screening assay to identify agonists of the transient receptor potential channel N1 (TRPN1). [Related pubchem assays: 1526, 1424, 1448 ]; format: functional

Sequence of Diphosphomevalonate decarboxylase (Q9FD53 whole entry): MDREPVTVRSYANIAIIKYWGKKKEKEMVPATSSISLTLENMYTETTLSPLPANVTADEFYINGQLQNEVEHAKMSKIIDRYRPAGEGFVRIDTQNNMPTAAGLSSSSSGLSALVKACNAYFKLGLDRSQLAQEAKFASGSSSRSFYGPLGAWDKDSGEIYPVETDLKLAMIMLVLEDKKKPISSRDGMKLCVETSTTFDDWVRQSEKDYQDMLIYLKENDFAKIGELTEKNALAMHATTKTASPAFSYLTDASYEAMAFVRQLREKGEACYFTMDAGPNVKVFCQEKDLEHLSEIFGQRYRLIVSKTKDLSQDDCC

O=C(c1ccc(-n2sc3ccccc3c2=O)cc1)N1CCCC1
IC50 [1]: 8.66 µM (active)

CCOc1ccc2nc(N3C(=O)/C(=C/c4ccc(Cl)cc4)NC3=S)sc2c1
EC50 [2]: 1.24 µM (active) | EC50 (Streptococcus): 855 nM (active) | EC50 [3]: 1.8 µM (active)

Fc1ccc(-n2nnc(-c3cccnc3)n2)cc1
IC50 (Bcl-2-related protein A1 [4]): > 100 µM (not active) | IC50 (Bcl-2-related protein A1 [5]): > 100 µM (not active) | IC50 (Protein skinhead-1): 17.4 µM (active)

CCOc1ccc(C(=O)C(CN2CCOCC2)c2ccccc2)cc1 (configuration not stated)
CC50 [6]: 8.04 µM (active) | AC50 (Paired box protein Pax-8): 1.96 µM (active) | CC50 [7]: 5.48 µM (active) | CC50 [8]: 16.1 µM (active) | IC50 [9]: 730 nM (active) | IC50 (cells): 10.3 µM (active)

CCOc1ccc(S(=O)(=O)N2CCCCCC2)c2ccccc12
EC50 (Ion channel NompC [10]): > 29.9 µM (not active) | EC50 (Mucolipin-3 [11]): 1.03 µM (active) | EC50 (Mucolipin-3 [12]): 950 nM (active) | EC50 (Ion channel NompC [13]): > 29.9 µM (not active)
